Here are results for one compound from ChEMBL document CHEMBL3045868, “Synthesis and antibacterial activities of para-alkoxy phenyl--ketoaldehyde derivatives” (Med Chem Res, 2013).

In brackets after ≈: the same amount, converted by molar mass.

Assay [1] concerns Staphylococcus aureus. Nature of the assay: Antibacterial activity against Staphylococcus aureus clinical isolate 16 assessed as growth inhibition at pH 7 after 16 to 18 hr by NCCLS agar dilution method. The assay is classed as functional. In general terms: Agar dilution tests growth on a series of plates holding different concentrations.
Assay [2] deals with Staphylococcus aureus. Put plainly: Antibacterial activity against Staphylococcus aureus clinical isolate 1 assessed as growth inhibition at pH 7 after 16 to 18 hr by NCCLS agar dilution method. The assay is classed as functional.

Usually MIC stands for the least concentration at which growth counts as inhibited. For the compound `CO/N=C/CC(=O)c1ccc(OC)cc1`, the results for the minimum inhibitory concentration (MIC) with Staphylococcus aureus [1] and in the assay on Staphylococcus aureus [2] were 8 µg/mL (≈ 38.6 µM) and 32 µg/mL (≈ 154 µM), respectively.
